Inhibition data for 29 compounds are collected here from US9802960B2 (MILLENNIUM PHARMACEUTICALS, INC., priority 2014, dated 2017).

Molecules are shown by their SMILES.

Human VPS34, sequence (Q8NEB9 whole entry): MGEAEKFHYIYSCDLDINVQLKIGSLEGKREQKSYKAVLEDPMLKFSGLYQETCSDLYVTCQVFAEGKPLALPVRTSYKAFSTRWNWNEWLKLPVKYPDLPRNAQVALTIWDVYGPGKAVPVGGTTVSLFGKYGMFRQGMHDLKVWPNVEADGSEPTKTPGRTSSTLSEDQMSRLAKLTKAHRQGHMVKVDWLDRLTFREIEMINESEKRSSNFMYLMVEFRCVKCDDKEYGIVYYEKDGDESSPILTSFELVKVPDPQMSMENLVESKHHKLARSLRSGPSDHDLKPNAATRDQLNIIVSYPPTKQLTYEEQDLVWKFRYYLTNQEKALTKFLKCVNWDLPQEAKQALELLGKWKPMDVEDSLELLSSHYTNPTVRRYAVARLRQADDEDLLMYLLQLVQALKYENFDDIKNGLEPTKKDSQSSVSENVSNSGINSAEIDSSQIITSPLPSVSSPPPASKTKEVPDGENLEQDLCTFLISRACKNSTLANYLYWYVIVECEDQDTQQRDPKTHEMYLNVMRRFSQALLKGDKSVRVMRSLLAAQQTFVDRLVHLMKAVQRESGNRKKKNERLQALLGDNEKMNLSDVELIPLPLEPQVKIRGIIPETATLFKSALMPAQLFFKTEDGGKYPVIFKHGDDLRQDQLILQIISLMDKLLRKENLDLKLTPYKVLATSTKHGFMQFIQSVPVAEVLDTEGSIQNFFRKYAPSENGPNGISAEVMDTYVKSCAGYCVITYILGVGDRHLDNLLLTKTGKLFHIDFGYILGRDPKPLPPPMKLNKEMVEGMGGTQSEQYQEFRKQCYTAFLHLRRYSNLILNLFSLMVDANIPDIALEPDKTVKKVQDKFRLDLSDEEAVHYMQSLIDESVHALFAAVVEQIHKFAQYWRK

The first test concerns the target Human VPS34 (Homo sapiens (Human), UniProt Q8NEB9). The test can be described thus: Human VPS34 enzyme assay (Adapta TR-FRET). It counts as biochemical. The settings on record: compound concentration 1.11 μM; read-out: Percent Inhibition.
What is called inhibition is how much of the control response was suppressed. As to `CC(=O)Nc1cc(-c2cncc(S(=O)(=O)NC34CC(C3)C4)c2)ccn1` [Compound I-190, N-[5-(bicyclo[1.1.1]pent-1-ylsulfamoyl)-3,4′-bipyridin-2′-yl]acetamide], the inhibition at 1.11 µM was 96%.

`CC(=O)Nc1cc(-c2cc(S(C)(=O)=O)c[n+]([O-])c2)ccn1` [Compound I-191, N-{4-[5-(methylsulfonyl)-1-oxidopyridin-3-yl]pyridin-2-yl}acetamide]: the inhibition at 1.11 µM is 77%. The same measure, in the same setting: in the case of `CC(=O)Nc1cc(-c2cncc(N3CCCS3(=O)=O)c2)ccn1` [Compound I-192, N-[5-(1,1-dioxidoisothiazolidin-2-yl)-3,4′-bipyridin-2′-yl]acetamide] it was over 99%. `CC(=O)Nc1cc(-c2cnc(C)c(NC(C)=O)c2)ccn1` [Compound I-193, N,N′-(6-methyl-3,4′-bipyridine-2′,5-diyl)diacetamide]: the inhibition at 1.11 µM is over 99%. Same read-out and setting: in the case of `CC(=O)Nc1cc(-c2cncc(C(C)=O)c2)ccn1` [Compound I-194, N-(5-acetyl-3,4′-bipyridin-2′-yl)acetamide] it was 62%; in that of `COC(=O)Nc1cc(-c2cnc(C)c(NS(=O)(=O)c3ccc(F)cc3F)c2)ccn1` [Compound I-195, methyl (5-{[(2,4-difluorophenyl)sulfonyl]amino}-6-methyl-3,4′-bipyridin-2′-yl)carbamate], over 99%; in that of `CC(=O)Nc1cc(-c2cnc(C)c(NS(=O)(=O)c3ccc(C(F)(F)F)cc3Cl)c2)ccn1` [Compound I-196, N-[5-({[2-chloro-4-(trifluoromethyl)phenyl]sulfonyl}amino)-6-methyl-3,4′-bipyridin-2′-yl]acetamide], over 99%. The same measure, in the same setting: in the case of `CC(=O)Nc1cc(-c2cnc(N)c(S(=O)(=O)Cc3ccccc3F)c2)ccn1` [Compound I-197, N-{6-amino-5-[(2-fluorobenzyl)sulfonyl]-3,4′-bipyridin-2′-yl}acetamide] it was over 99%; in that of `CC(=O)Nc1cc(-c2cncc(C(=O)/C=C/c3ccc(F)cc3)c2)ccn1` [Compound I-198, N-{5-[(2E)-3-(4-fluorophenyl)prop-2-enoyl]-3,4′-bipyridin-2′-yl}acetamide], 68%.

For `CC(=O)Nc1cc(-c2cnc3ccn(S(=O)(=O)C4CC4)c3c2)ccn1` [Compound I-199, N-{4-[1-(cyclopropylsulfonyl)-1H-pyrrolo[3,2-b]pyridin-6-yl]pyridin-2-yl}acetamide], the inhibition at 1.11 µM is over 99%. Take `CC(=O)Nc1cc(-c2cnc(N)c(C(=O)N3CCC3)c2)ccn1` [Compound I-200, N-[6-amino-5-(azetidin-1-ylcarbonyl)-3,4′-bipyridin-2′-yl]acetamide]: the inhibition at 1.11 µM was over 99%. Still for that read-out and setting: in the case of `CCc1ncc(-c2ccnc(NC(C)=O)c2)cc1NS(=O)(=O)c1ccc(F)cc1F` [Compound I-201, N-(5-{[(2,4-difluorophenyl)sulfonyl]amino}-6-ethyl-3,4′-bipyridin-2′-yl)acetamide] it was over 99%. As for `CC(=O)Nc1cc(-c2cncc(N(CC3CC3)S(C)(=O)=O)c2)ccn1` [Compound I-202, N-{5-[(cyclopropylmethyl)(methylsulfonyl)amino]-3,4′-bipyridin-2′-yl}acetamide], the inhibition at 1.11 µM was over 99%. For the compound `CC(=O)Nc1cc(-c2cnc(C)c(NS(=O)(=O)c3ccsc3)c2)ccn1` [Compound I-203, N-{6-methyl-5-[(3-thienylsulfonyl)amino]-3,4′-bipyridin-2′-yl}acetamide], the inhibition at 1.11 µM is over 99%. Consider `CC(=O)Nc1cc(-c2cnc(N)c(S(=O)(=O)Nc3cccnc3)c2)ccn1` [Compound I-204, N-[6-amino-5-(pyridin-3-ylsulfamoyl)-3,4′-bipyridin-2′-yl]acetamide], for which the inhibition at 1.11 µM was over 99%. Still for that read-out and setting: next, `CC(=O)Nc1cc(-c2cnc(N)c(S(=O)(=O)Cc3cccnc3)c2)ccn1` [Compound I-205, N-{6-amino-5-[(pyridin-3-ylmethyl)sulfonyl]-3,4′-bipyridin-2′-yl}acetamide]: over 99%. On the same count and under the same terms, in the case of `CC(=O)Nc1cc(-c2cnc(C)c(NS(=O)(=O)c3ccc(F)cc3Cl)c2)ccn1` [Compound I-206, N-(5-{[(2-chloro-4-fluorophenyl)sulfonyl]amino}-6-methyl-3,4′-bipyridin-2′-yl)acetamide] it was over 99%; in that of `CC(=O)Nc1cc(-c2cnc(N)c(S(=O)(=O)Nc3ccc(Cl)cc3)c2)ccn1` [Compound I-207, N-{6-amino-5-[(4-chlorophenyl)sulfamoyl]-3,4′-bipyridin-2′-yl}acetamide], over 99%.

For the compound `CC(=O)Nc1cc(-c2cnc3[nH]ncc3c2)c(C)cn1` [Compound I-209, N-[5-methyl-4-(1H-pyrazolo[3,4-b]pyridin-5-yl)pyridin-2-yl]acetamide], the inhibition at 1.11 µM was 49%. The same measure, in the same setting: next, `CC(=O)Nc1cc(-c2cnc(N)c(C(=O)NC3CCOCC3)c2)ccn1` [Compound I-210, 2′-acetamido-6-amino-N-(tetrahydro-2H-pyran-4-yl)-3,4′-bipyridine-5-carboxamide]: over 99%; `CC(=O)Nc1cc(-c2cnc(C)c(NS(=O)(=O)c3ccccc3C)c2)ccn1` [Compound I-211, N-(6-methyl-5-{[(2-methylphenyl)sulfonyl]amino}-3,4′-bipyridin-2′-yl)acetamide]: over 99%; `CC(=O)Nc1cc(-c2cnc(C)c(N(C)S(=O)(=O)C3CC3)c2)ccn1` [Compound I-212, N-{5-[(cyclopropylsulfonyl)(methyl)amino]-6-methyl-3,4′-bipyridin-2′-yl}acetamide]: 95%. As for `CC(=O)Nc1cc(-c2cnc(Cl)c(C(=O)N(C)C)c2)ccn1` [Compound I-213, 2′-acetamido-6-chloro-N,N-dimethyl-3,4′-bipyridine-5-carboxamide], the inhibition at 1.11 µM was over 99%. In the case of `CC(=O)Nc1cc(-c2cnc(C)c(NS(=O)(=O)N3CCCCC3)c2)ccn1` [Compound I-214, N-{6-methyl-5-[(piperidin-1-ylsulfonyl)amino]-3,4′-bipyridin-2′-yl}acetamide], the inhibition at 1.11 µM is over 99%. On to `Cc1nccc(Nc2cc(-c3cnc(Cl)c(S(=O)(=O)NC4CCC4)c3)ccn2)n1` [Compound I-215, 6-chloro-N-cyclobutyl-2′-((2-methylpyrimidin-4-yl)amino)-[3,4′-bipyridine]-5-sulfonamide], for which the inhibition at 1.11 µM was determined as 99%. On the same count and under the same terms, in the case of `N=C(N)NC(=O)c1cc(-c2ccnc(Nc3ccncn3)c2)cnc1N` [Compound I-216, 6-Amino-N-carbamimidoyl-2′-(pyrimidin-4-ylamino)-3,4′-bipyridine-5-carboxamide] it was 97%; in that of `Cc1ncc(-c2ccnc(Nc3ccncn3)c2)cc1NS(=O)(=O)N(C)C` [Compound I-217, N,N-dimethyl-Y-[6-methyl-2′-(pyrimidin-4-ylamino)-3,4′-bipyridin-5-yl]sulfuric diamide], over 99%. The same measure, in the same setting: in the case of `CC(=O)Nc1cc(-c2cnc(C)c(NS(=O)(=O)c3ccc(F)cc3F)c2)cc[n+]1[O-]` [Compound I-219, N-[4-(5-{[(2,4-difluorophenyl)sulfonyl]amino}-6-methylpyridin-3-yl)-1-oxidopyridin-2-yl]acetamide] it was 92%.

The test is the same for the next values; noted with them: read-out: Percent Inhibition.
For `CC(=O)Nc1cc(-c2cnc(N)c(S(=O)(=O)CC3CC3)c2)ccn1` [Compound I-208], the inhibition at 1.11 µM is over 99%.
